Data reported in US9447028B2, “Therapeutic aryl-amido-aryl compounds and their use” (King's College London, priority 2009, dated 2016).

What was measured:
Type in all cases: cell-based
RARγ = target: T1, RARγ (Homo sapiens, UniProt P13631); assay: Transactivation assay for RAR gamma (gal4-RAR fusion, luciferase reporter, COS-7 cells); settings: ratio of test compound EC50 to that of atRA; inactive = no agonist action at the highest concentration tested
T1 construct: gal4 (fusion partner); expressed in transfected cells; host or cells: COS-7
T1 sequence (P13631 185-419 limits assumed): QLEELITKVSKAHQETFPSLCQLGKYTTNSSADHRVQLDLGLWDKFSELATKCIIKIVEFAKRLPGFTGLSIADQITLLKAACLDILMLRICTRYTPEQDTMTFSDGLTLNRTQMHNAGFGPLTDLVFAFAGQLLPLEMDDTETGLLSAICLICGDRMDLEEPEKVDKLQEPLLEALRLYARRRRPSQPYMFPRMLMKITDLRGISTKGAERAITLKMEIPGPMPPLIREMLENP
Experimental: (§1) Transcriptional transactivation assays were performed with gal4 fusion receptor constructs, created using each of the RAR ligand binding domains, co-transfected with the pFR-luc (Stratagene™) reporter construct in COS-7 cells.
(§2) Briefly, on day 1, 96 well plates were seeded with 8000 cells per well then left to recover overnight. On day 2, the cells were co-transfected with 100 ng of reporter plasmid and 10 ng of the appropriate receptor plasmid per well using lipofectamine (Invitrogen™). On day 3, the lipofectamine containing media was replaced by a DMEM without phenol red, followed by the addition of test compound dissolved in 1 μL of DMSO to each well's 100 μL total volume. Finally, on day 4, the cells were lysed and their luciferase substrate was provided by the BrightGlo™ reagent (Promega™), the plates were then read on the MicroBeta TriLux™ (Perkin Elmer™).
(§3) Where replicate data has been generated, the data are quoted as a ratio of the mean EC50 from the separate experiments.

RARβ = target: T2, RARβ (Homo sapiens, UniProt P10826); assay: Transactivation assay for RAR beta (gal4-RAR fusion, luciferase reporter, COS-7 cells); settings: ratio of test compound EC50 to that of atRA; inactive = no agonist action at the highest concentration tested
T2 construct: gal4 (fusion partner); expressed in transfected cells; host or cells: COS-7
T2 sequence (P10826 183-417 limits assumed): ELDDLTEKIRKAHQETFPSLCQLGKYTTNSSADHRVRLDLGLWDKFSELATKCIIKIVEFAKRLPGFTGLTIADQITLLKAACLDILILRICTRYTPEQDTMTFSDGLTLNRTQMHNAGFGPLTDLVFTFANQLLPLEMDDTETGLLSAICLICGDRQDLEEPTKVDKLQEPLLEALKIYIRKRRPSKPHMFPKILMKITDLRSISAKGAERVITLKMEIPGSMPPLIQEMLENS
Experimental: as §1, §2, §3

RARα = target: T3, RARα (Homo sapiens, UniProt P10276); assay: Transactivation assay for RAR alpha (gal4-RAR fusion, luciferase reporter, COS-7 cells); settings: for RARα/RARβ ratio (*): fold-selectivity for RARα over RARβ; for RARα activity ratio: ratio of test compound EC50 to that of atRA on the same plate; for Improvement (RARα activity ratio) / Improvement (RARα/RARβ ratio): compared with XXX-03
T3 construct: gal4 (fusion partner); expressed in transfected cells; host or cells: COS-7
T3 sequence (P10276 183-417 limits assumed): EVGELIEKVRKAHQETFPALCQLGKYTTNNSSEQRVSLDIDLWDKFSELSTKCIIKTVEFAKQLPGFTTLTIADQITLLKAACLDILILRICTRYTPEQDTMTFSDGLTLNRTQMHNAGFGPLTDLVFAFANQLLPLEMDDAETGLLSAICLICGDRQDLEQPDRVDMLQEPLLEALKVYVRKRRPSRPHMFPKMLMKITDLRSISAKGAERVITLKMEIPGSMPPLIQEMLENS
Experimental: as §1, §2, §3

RARγ activity ratio (RARγ) | RARβ activity ratio (RARβ) | RARα/RARβ ratio (*) (RARα) | RARα activity ratio (RARα) | Compound | Improvement (RARα activity ratio) (RARα) | Improvement (RARα/RARβ ratio) (RARα)
1200 | 139 | 9.3 |  | CCCOc1c(Cl)cc(C(=O)Nc2ccc(C(=O)O)cc2)cc1Cl [AAA-003, 4-(3,5-Dichloro-4-propoxybenzamido)benzoic acid] | ~6.0-fold | ~1.3-fold
833 | 73 | 33 | 2.2 | CCC(CC)Oc1cc(C(=O)Nc2ccc(C(=O)O)c(C)c2)cc(Cl)c1OC [AAA-102, 4-(3-Chloro-4-methoxy-5-(pentan-3-yloxy)benzamido)-2-methylbenzoic acid] |  | 
 |  |  | 760 | CCOc1c(F)cc(NC(=O)c2ccc(C(=O)O)cc2)cc1F [AAA-021, 4-(4-Ethoxy-3,5-difluorophenylcarbamoyl)benzoic acid] |  | 
14500 | 32400 | 210 | 154 | Cc1cc(NC(=O)c2cc(F)c(OC(C)C)c(Cl)c2)ccc1C(=O)O [AAA-074, 4-(3-Chloro-5-fluoro-4-isopropoxybenzamido)-2-methylbenzoic acid] |  | 
11725 | 2000 | 286 | 7 | CCOc1cc(C(=O)Nc2ccc(C(=O)O)c(C)c2)cc(Cl)c1OC(C)C [AAA-087, 4-(3-Chloro-5-ethoxy-4-isopropoxybenzamido)-2-methylbenzoic acid] |  | 
inactive | 1300 | 2.4 | 533 | O=C(O)c1ccc(NC(=O)c2cc(Cl)c(OCc3ccncc3)c(Cl)c2)cc1 [AAA-012, 4-(3,5-Dichloro-4-(pyridin-4-ylmethoxy)benzamido)benzoic acid] |  | 
inactive | 2010 |  |  | CCOc1c(Cl)cc(C(=O)Nc2ccc(C(=O)O)c(F)c2)cc1Cl [AAA-007, 4-(3,5-Dichloro-4-ethoxybenzamido)-2-fluorobenzoic acid] |  | 
 | 7558 | 236 | 32 | COc1c(Cl)cc(C(=O)Nc2ccc(C(=O)O)c(F)c2)cc1C(F)(F)F [AAA-066, 4-(3-Chloro-4-methoxy-5-(trifluoromethyl)benzamido)-2-fluorobenzoic acid] |  | 
 | inactive | >500 | 140 | CCOc1c(Cl)cc(C(=O)Nc2ccc(C(=O)OC)c(Cl)c2)cc1Cl [AAA-017, Methyl 4-(3,5-dichloro-4-ethoxybenzamido)-2-chlorobenzoate] |  | 
 |  |  | 500 | CCOc1c(Cl)cc(C(=O)Nc2ccc(C(N)=O)cc2)cc1Cl [AAA-016, N-(4-Carbamoylphenyl)-3,5-dichloro-4-ethoxybenzamide] |  | 
 | inactive | >5 | 260 | CCOc1c(Cl)cc(C(=O)Nc2ccc(C(=O)O)cn2)cc1Cl [AAA-027, 6-(3,5-Dichloro-4-ethoxybenzamido)nicotinic acid] |  | 

The next lines start with the compound.

Compound | RARγ activity ratio (RARγ) | RARβ activity ratio (RARβ) | RARα/RARβ ratio (*) (RARα) | RARα activity ratio (RARα) | Improvement (RARα activity ratio) (RARα) | Improvement (RARα/RARβ ratio) (RARα)
CCOc1cc(C(=O)Nc2ccc(C(=O)O)cc2)cc(OC(C)C)c1OCC [AAA-009, 4-(3,4-Diethoxy-5-isopropoxybenzamido)benzoic acid] | 960 | 2450 |  |  |  | 
CC(C)Oc1cc(C(=O)Nc2ccc(C(=O)O)cc2)cc(C(F)(F)F)c1OC(C)C [AAA-120, 4-(3,4-Diisopropoxy-5-(trifluoromethyl)benzamido)benzoic acid] | 2162 | 142 | 157 | 0.89 |  | 
CC(C)Oc1c(Cl)cc(C(=O)Nc2ccc(C(=O)O)cc2)cc1C(F)(F)F [AAA-034, 4-(3-Chloro-4-isopropoxy-5-(trifluoromethyl)benzamido)benzoic acid] | 1250 | 244 | 122 | 2 |  | 
O=C(O)c1ccc(NC(=O)c2cc(Cl)c(OC3CCC3)c(Cl)c2)cc1 [AAA-011, 4-(3,5-Dichloro-4-cyclobutoxybenzamido)benzoic acid] | 21800 | 2960 |  |  | ~2.6-fold | ~12-fold
CCOc1c(C(F)(F)F)cc(NC(=O)c2ccc(C(=O)O)cc2)cc1C(F)(F)F [AAA-015, 4-(4-Ethoxy-3,5-bis(trifluoromethyl)phenylcarbamoyl)benzoic acid] | inactive | 540 |  |  |  | 
COc1cc(C(=O)Nc2ccc(C(=O)O)cc2)cc(OC(C)C)c1Cl [AAA-118, 4-(4-Chloro-3-isopropoxy-5-methoxybenzamido)benzoic acid] | 933333 | 1700 | 47 | 36 |  | 
CC(C)Oc1cc(C(=O)Nc2ccc(C(=O)O)c(F)c2)cc(OC(C)C)c1Br [AAA-108, 4-(4-Bromo-3,5-diisopropoxybenzamido)-2-fluorobenzoic acid] | 32500 | 1727 | 338 | 5.1 |  | 
CCOc1c(Br)cc(C(=O)Nc2ccc(C(=O)O)cc2)cc1Br [AAA-023, 4-(3,5-Dibromo-4-ethoxybenzamido)benzoic acid] | 62370 | 404 |  |  |  | 
Cc1cc(NC(=O)c2cc(Cl)c(OC(C)(C)C)c(C(F)(F)F)c2)ccc1C(=O)O [AAA-038, 4-(4-(tert-Butoxy)-3-chloro-5-(trifluoromethyl)benzamido)-2-methylbenzoic acid] | 0.36 | 49 | 98 | 0.50 |  | 
Cc1cc(NC(=O)c2cc(Cl)c(OC(C)(C)C)c(Cl)c2)ccc1C(=O)O [AAA-056, 4-(4-tert-Butoxy-3,5-dichlorobenzamido)-2-methylbenzoic acid] | 22 | >770 | >250 | 3.1 |  | 
COc1c(Cl)cc(C(=O)Nc2ccc(C(=O)O)cc2)cc1OCC(C)(C)C [AAA-105, 4-(3-Chloro-4-methoxy-5-(neopentyloxy)benzamido)benzoic acid] | 941 | 8.4 | 13 | 0.66 |  | 
CCOc1c(Br)cc(NC(=O)c2ccc(C(=O)O)cc2)cc1Br [AAA-014, 4-(3,5-Dibromo-4-ethoxyphenylcarbamoyl)benzoic acid] | inactive | 1350 | 23.3 | 58 |  | 
CC(C)Oc1cc(C(=O)Nc2ccc(C(=O)O)cc2)cc(OC(C)C)c1Br [AAA-107, 4-(4-Bromo-3,5-diisopropoxybenzamido)benzoic acid] | 2833 | 647 | 135 | 4.8 |  | 
CC(C)Oc1cc(C(=O)Nc2ccc(C(=O)O)cc2)cc(OC(C)C)c1OC(C)C [AAA-059, 4-(3,4,5-Triisopropoxybenzamido)benzoic acid] | 225 | 2600 | 96 | 27 |  | 
COc1c(Cl)cc(C(=O)Nc2ccc(C(=O)O)c(F)c2)cc1OC1CCC1 [AAA-100, 4-(3-Chloro-5-cyclobutoxy-4-methoxybenzamido)-2-fluorobenzoic acid] | 11818 | 3273 | 99 | 33 |  | 
CCOc1ccc(C(=O)Nc2cc(F)c(C(=O)O)c(F)c2)cc1C(F)(F)F [XXX-02, 4-(4-Ethoxy-3-(trifluoromethyl)benzamido)-2,6-difluorobenzoic acid, reference compound] |  |  |  | 2242 |  | 
COc1cc(C(=O)Nc2ccc(C(=O)O)cc2)cc(Cl)c1OC1CCCC1 [AAA-006, 4-(3-Chloro-4-(cyclopentyloxy)-5-methoxybenzamido)benzoic acid] | 5840 | 1054 |  |  |  | 
